In ChEMBL document CHEMBL1649287, “Postantibiotic effect of ceftaroline against gram-positive organisms” (2009):
Converted amounts (≈) assume the structure as drawn.

Columns and labels:
Assay type in all cases: functional
Enterococcus faecalis [1] = experiment: Antimicrobial activity against vancomycin-resistant Enterococcus faecalis 266 by microdilution method
Staphylococcus aureus [2] = experiment: Antimicrobial activity against methicillin-resistant, vancomycin-susceptible Staphylococcus aureus vs1 assessed as time required to induce post antibiotic sub-MIC effect at 0.4 times MIC after 1 hr by plate counting method; settings: vs1, 1 h
Staphylococcus aureus [3] = experiment: Antimicrobial activity against methicillin-susceptible, vancomycin-susceptible Staphylococcus aureus sox1 assessed as post antibiotic effect at 10 times MIC after 1 hr by plate counting method; settings: sox1, 1 h
Streptococcus pneumoniae [4] = experiment: Antimicrobial activity against Penicillin-susceptible Streptococcus pneumoniae ATCC 49617 assessed as post antibiotic effect at 10 times MIC after 1 hr by plate counting method; settings: ATCC 49617, 1 h
Staphylococcus aureus [5] = experiment: Antimicrobial activity against methicillin-resistant, vancomycin-intermediate Staphylococcus aureus 510 assessed as time required to induce sub-MIC effect at 0.4 times MIC after 1 hr by plate counting method; settings: Staphylococcus aureus, 510, 1 h
Enterococcus faecalis [6] = experiment: Antimicrobial activity against vancomycin-resistant Enterococcus faecalis 266 assessed as time required to induce post antibiotic sub-MIC effect at 0.3 times MIC after 1 hr by plate counting method; settings: Enterococcus faecalis, 266, 1 h
Streptococcus pneumoniae [7] = experiment: Antimicrobial activity against Penicillin-, erythromycin-resistant Streptococcus pneumoniae 37 by microdilution method
Enterococcus faecalis [8] = experiment: Antimicrobial activity against vancomycin-resistant Enterococcus faecalis 266 assessed as time required to induce sub-MIC effect at 0.4 times MIC after 1 hr by plate counting method; settings: Enterococcus faecalis, 266, 1 h
Enterococcus faecalis [9] = experiment: Antimicrobial activity against vancomycin-resistant Enterococcus faecalis 609 by microdilution method
Streptococcus pneumoniae [10] = experiment: Antimicrobial activity against Penicillin-, erythromycin-resistant Streptococcus pneumoniae 37 assessed as time required to induce sub-MIC effect at 0.3 times MIC after 1 hr by plate counting method; settings: Streptococcus pneumoniae, 37, 1 h
Streptococcus pneumoniae [11] = experiment: Antimicrobial activity against Penicillin-intermediate Streptococcus pneumoniae s1234 assessed as time required to induce post antibiotic sub-MIC effect at 0.2 times MIC after 1 hr by plate counting method; settings: s1234, 1 h
Streptococcus pneumoniae [12] = experiment: Antimicrobial activity against Penicillin-intermediate Streptococcus pneumoniae s1234 assessed as post antibiotic effect at 10 times MIC after 1 hr by plate counting method; settings: s1234, 1 h
Staphylococcus aureus [13] = experiment: Antimicrobial activity against methicillin-resistant, vancomycin-susceptible Staphylococcus aureus vs1 assessed as time required to induce post antibiotic sub-MIC effect at 0.2 times MIC after 1 hr by plate counting method; settings: vs1, 1 h
Enterococcus faecalis [14] = experiment: Antimicrobial activity against vancomycin-sensitive Enterococcus faecalis 10 assessed as time required to induce post antibiotic sub-MIC effect at 0.2 times MIC after 1 hr by plate counting method; settings: Enterococcus faecalis, 10, 1 h
Enterococcus faecalis [15] = experiment: Antimicrobial activity against vancomycin-sensitive Enterococcus faecalis ATCC 29212 by microdilution method
Enterococcus faecalis [16] = experiment: Antimicrobial activity against vancomycin-sensitive Enterococcus faecalis 10 assessed as time required to induce post antibiotic sub-MIC effect at 0.3 times MIC after 1 hr by plate counting method; settings: Enterococcus faecalis, 10, 1 h
Staphylococcus aureus [17] = experiment: Antimicrobial activity against methicillin-resistant, vancomycin-intermediate Staphylococcus aureus 510 assessed as time required to induce post antibiotic sub-MIC effect at 0.4 times MIC after 1 hr by plate counting method; settings: Staphylococcus aureus, 510, 1 h
Staphylococcus aureus [18] = experiment: Antimicrobial activity against methicillin-resistant, vancomycin-intermediate Staphylococcus aureus 510 assessed as time required to induce post antibiotic sub-MIC effect at 0.3 times MIC after 1 hr by plate counting method; settings: Staphylococcus aureus, 510, 1 h
Staphylococcus aureus [19] = experiment: Antimicrobial activity against methicillin-susceptible, vancomycin-susceptible Staphylococcus aureus ATCC 29213 assessed as time required to induce sub-MIC effect at 0.4 times MIC after 1 hr by plate counting method; settings: ATCC 29213, 1 h
Enterococcus faecalis [20] = experiment: Antimicrobial activity against vancomycin-resistant Enterococcus faecalis 266 assessed as time required to induce sub-MIC effect at 0.3 times MIC after 1 hr by plate counting method; settings: Enterococcus faecalis, 266, 1 h
Streptococcus pneumoniae [21] = experiment: Antimicrobial activity against Penicillin-susceptible Streptococcus pneumoniae s502 assessed as time required to induce sub-MIC effect at 0.3 times MIC after 1 hr by plate counting method; settings: s502, 1 h
Enterococcus faecalis [22] = experiment: Antimicrobial activity against vancomycin-sensitive Enterococcus faecalis 20 assessed as time required to induce post antibiotic sub-MIC effect at 0.2 times MIC after 1 hr by plate counting method; settings: Enterococcus faecalis, 20, 1 h
Staphylococcus aureus [23] = experiment: Antimicrobial activity against methicillin-resistant, vancomycin-susceptible Staphylococcus aureus vs1 by microdilution method
Staphylococcus aureus [24] = experiment: Antimicrobial activity against methicillin-resistant, vancomycin-resistant Staphylococcus aureus 770 assessed as time required to induce post antibiotic sub-MIC effect at 0.3 times MIC after 1 hr by plate counting method; settings: Staphylococcus aureus, 770, 1 h
Staphylococcus aureus [25] = experiment: Antimicrobial activity against Staphylococcus aureus ATCC 29213 infected in neutropenic ICR mouse assessed as post antibiotic effect at 1.56 to 100 mg/kg, sc administered 14 hrs post infection; settings: dose mg/kg 1.56-100; route subcutaneous
Streptococcus pneumoniae [26] = experiment: Antimicrobial activity against Penicillin-, erythromycin-resistant Streptococcus pneumoniae 37 assessed as post antibiotic effect at 10 times MIC after 1 hr by plate counting method; settings: Streptococcus pneumoniae, 37, 1 h
Enterococcus faecalis [27] = experiment: Antimicrobial activity against vancomycin-sensitive Enterococcus faecalis 20 assessed as time required to induce sub-MIC effect at 0.4 times MIC after 1 hr by plate counting method; settings: Enterococcus faecalis, 20, 1 h
Enterococcus faecalis [28] = experiment: Antimicrobial activity against vancomycin-resistant Enterococcus faecalis 266 assessed as post antibiotic effect at 10 times MIC after 1 hr by plate counting method; settings: Enterococcus faecalis, 266, 1 h
Staphylococcus aureus [29] = experiment: Antimicrobial activity against methicillin-resistant, vancomycin-hetroresistant Staphylococcus aureus 618 assessed as post antibiotic effect at 10 times MIC after 1 hr by plate counting method; settings: Staphylococcus aureus, 618, 1 h
Streptococcus pneumoniae [30] = experiment: Antimicrobial activity against Penicillin-intermediate Streptococcus pneumoniae s1234 assessed as time required to induce post antibiotic sub-MIC effect at 0.4 times MIC after 1 hr by plate counting method; settings: s1234, 1 h
Enterococcus faecalis [31] = experiment: Antimicrobial activity against vancomycin-sensitive Enterococcus faecalis ATCC 29212 assessed as time required to induce post antibiotic sub-MIC effect at 0.3 times MIC after 1 hr by plate counting method; settings: ATCC 29212, 1 h
Staphylococcus aureus [32] = experiment: Antimicrobial activity against methicillin-susceptible, vancomycin-susceptible Staphylococcus aureus ATCC 29213 assessed as time required to induce post antibiotic sub-MIC effect at 0.2 times MIC after 1 hr by plate counting method; settings: ATCC 29213, 1 h
Staphylococcus aureus [33] = experiment: Antimicrobial activity against methicillin-resistant, vancomycin-hetroresistant Staphylococcus aureus 618 by microdilution method
Enterococcus faecalis [34] = experiment: Antimicrobial activity against vancomycin-resistant Enterococcus faecalis 609 assessed as time required to induce sub-MIC effect at 0.3 times MIC after 1 hr by plate counting method; settings: Enterococcus faecalis, 609, 1 h
Staphylococcus aureus [35] = experiment: Antimicrobial activity against methicillin-resistant, vancomycin-resistant Staphylococcus aureus 770 assessed as time required to induce sub-MIC effect at 0.2 times MIC after 1 hr by plate counting method; settings: Staphylococcus aureus, 770, 1 h
Enterococcus faecalis [36] = experiment: Antimicrobial activity against vancomycin-sensitive Enterococcus faecalis 20 assessed as time required to induce sub-MIC effect at 0.3 times MIC after 1 hr by plate counting method; settings: Enterococcus faecalis, 20, 1 h

## CCO/N=C(\C(=O)N[C@@H]1C(=O)N2C(C(=O)[O-])=C(Sc3nc(-c4cc[n+](C)cc4)cs3)CS[C@H]12)c1nsc(NP(=O)(O)O)n1 [CEFTAROLINE FOSAMIL]
Enterococcus faecalis [1]
  MIC: 2 µg/mL (≈ 2.92 µM)
Staphylococcus aureus [2]
  time: 6.7 h
Staphylococcus aureus [3]
  PAE: 0.8 h
Streptococcus pneumoniae [4]
  PAE: 1.6 h
Staphylococcus aureus [5]
  time: 1.3 h
Enterococcus faecalis [6]
  time: > 10.3 h
Streptococcus pneumoniae [7]
  MIC: 0.25 µg/mL (≈ 0.365 µM)
Enterococcus faecalis [8]
  time: 9.5 h
Enterococcus faecalis [9]
  MIC: 1 µg/mL (≈ 1.46 µM)
Streptococcus pneumoniae [10]
  time: 0.5 h
Streptococcus pneumoniae [11]
  PAE: 1.4 h
Streptococcus pneumoniae [12]
  PAE: 0.7 h
Staphylococcus aureus [13]
  time: 2.7 h
Enterococcus faecalis [14]
  PAE: 3.2 h
Enterococcus faecalis [15]
  MIC: 1 µg/mL (≈ 1.46 µM)
Enterococcus faecalis [16]
  PAE: 6.6 h
Staphylococcus aureus [17]
  time: > 10 h
Staphylococcus aureus [18]
  time: > 9.1 h
Staphylococcus aureus [19]
  PAE: 2.8 h
Enterococcus faecalis [20]
  time: 1.8 h
Streptococcus pneumoniae [21]
  PAE: 0.3 h
Enterococcus faecalis [22]
  PAE: 4.1 h
Staphylococcus aureus [23]
  MIC: 0.5 µg/mL (≈ 0.73 µM)
Staphylococcus aureus [24]
  time: 5 h
Staphylococcus aureus [25]
  PAE: 0.8 h
Streptococcus pneumoniae [26]
  PAE: 1.5 h
Enterococcus faecalis [27]
  PAE: 3.6 h
Enterococcus faecalis [28]
  PAE: 0.9 h
Staphylococcus aureus [29]
  PAE: 0.7 h
Streptococcus pneumoniae [30]
  PAE: 2.5 h
Enterococcus faecalis [31]
  PAE: > 10.6 h
Staphylococcus aureus [32]
  PAE: 2.5 h
Staphylococcus aureus [33]
  MIC: 2 µg/mL (≈ 2.92 µM)
Enterococcus faecalis [34]
  time: 1.4 h
Staphylococcus aureus [35]
  time: 0.3 h
Enterococcus faecalis [36]
  PAE: 1.3 h
